Experimental data reported in patent US20180338980A1, “AROMATIC SULFONAMIDE DERIVATIVES” (BAYER PHARMA AKTIENGESELLSCHAFT, priority 2015, published 2018).

Experiments:
P2X4 [1] = biological target: T1, P2X4 (Homo sapiens, UniProt Q99571); assay: Assay A: human P2X4 receptor cell line, FLIPR calcium assay (Fluo-8, agonist Bz-ATP at EC80); assay type: cell-based; parameters: host or cells: HEK 293 (recombinant, constitutively expressing; with mitochondrial photina in Assay B); details: HEK human P2X4 cells, Fluo-8 FLIPR; for IC50: Bz-ATP at EC80, average values; for Emax: percentage of maximal inhibition, read-out: human P2X4 Assay A avg Efficacy
T1 sequence (Q99571 1-388): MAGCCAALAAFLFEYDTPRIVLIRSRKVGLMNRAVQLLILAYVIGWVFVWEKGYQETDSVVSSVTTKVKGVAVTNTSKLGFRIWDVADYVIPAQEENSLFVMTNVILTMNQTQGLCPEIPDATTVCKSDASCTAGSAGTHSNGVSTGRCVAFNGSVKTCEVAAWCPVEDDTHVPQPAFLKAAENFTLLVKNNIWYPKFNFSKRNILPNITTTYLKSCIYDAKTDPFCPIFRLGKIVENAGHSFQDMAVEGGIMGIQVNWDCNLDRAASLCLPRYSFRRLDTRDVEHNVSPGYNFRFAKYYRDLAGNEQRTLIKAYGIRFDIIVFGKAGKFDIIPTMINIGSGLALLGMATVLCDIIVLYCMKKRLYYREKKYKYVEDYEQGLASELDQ
Method: A fluorescent imaging plate reader (FLEX/FLIPR station; Molecular Devices) was used to monitor intracellular calcium levels using the calcium-chelating dye Fluo-8 (Molecular Probes). […] Cells expressing purinergic receptors human P2X4 (HEK human P2X4: PerkinElmer, Product No.: AX-015-PCF) were plated at a density of 20,000 cells/well in poly-D-lysine-coated 384-well plates approximately 20 hours before beginning the assay. On the day of the assay, the medium was removed and 30 μl of dye buffer (Hank's balanced salt solution, 10 mM HEPES, 1.8 mM CaCl2), 1 mM MgCl2, 2 mM probenecid, 5 mM D-glucose monohydrate, 5 μM Fluo-8, pH=7.4) was added for 30 min at […] and 5% CO2. The antagonist in probenecid buffer (Hank's balanced salt solution, 10 mM HEPES, 1.8 mM CaCl2, 1 mM MgCl2, 2 mM probenecid, 5 mM D-glucose monohydrate, pH=7.4) was added in a volume of 10 μl and allowed to incubate for 30 min at room temperature. The final assay DMSO concentration is 0.5%. The agonist, Bz-ATP, is added in a volume of 10 μl at a concentration representing the EC80 value. The fluorescence was measured for an interval of 120 sec at 2 sec intervals and analyzed based on the increase in peak relative fluorescence units (RFU) compared to the basal fluorescence. Peak fluorescence was used to determine the response to agonist obtained at each concentration of antagonist by the following equation:
% Response=100*(RFU(drug)−RFU(control))/(RFU(DMSO)−RFU(control))
The compounds were tested in triplicates per plate and mean values were plotted in Excel XLFit to determine IC50 values, percentage of maximal inhibition and the Hill coefficients.

P2X4 [2] = biological target: T1, P2X4; assay: Assay B: human P2X4 receptor cell line, mitochondrial photina luminescence (agonist Bz-ATP at EC50); assay type: cell-based; parameters: host or cells: HEK 293 (recombinant, constitutively expressing; with mitochondrial photina in Assay B); details: HEK human P2X4 cell line, photina luminescence, agonist Bz-ATP at EC50, average; for Emax: read-out: human P2X4 Assay B avg Efficacy
In short: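 Bz-ATP at its EC50 activates human P2X4 stably expressed in a cell line that also carries the calcium-sensitive photoprotein mitochondrial photina (coelenterazine cofactor). Light emitted on calcium influx is measured straight away in a luminometer. Reduced luminescence indicates antagonism.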

| Structure (SMILES) | IC50 (P2X4 [1]) [nM] | Emax (P2X4 [1]) [%] | IC50 (P2X4 [2]) [nM] | Emax (P2X4 [2]) [%] |
| --- | --- | --- | --- | --- |
| NS(=O)(=O)c1cc(NC(=O)Cc2c(Cl)ccc(Br)c2Cl)ccc1Oc1cccc(Cl)c1 [Example 131, 2-(3-bromo-2,6-dichlorophenyl)-N-[4-(3-chlorophenoxy)-3-sulfamoylphenyl]acetamide] | 284 | 77 | 2400 | 86 |
| NS(=O)(=O)c1cc(NC(=O)Cc2ccccc2Cl)ccc1OCC1(F)CCOCC1 [Example 054, 2-(2-chlorophenyl)-N-{4-[(4-fluorotetrahydro-2H-pyran-4-yl)methoxy]-3-sulfamoylphenyl}acetamide] | 68 | 94 | 578 | 84 |
| NS(=O)(=O)c1cc(NC(=O)Cc2cccc(F)c2Cl)ccc1OCC1CCOCC1 [Example 167, 2-(2-Chloro-3-fluorophenyl)-N-[3-sulfamoyl-4-(tetrahydro-2H-pyran-4-ylmethoxy)phenyl]acetamide] | – | 87 | – | 80 |
| Cc1ccc(F)c(CC(=O)Nc2ccc(Oc3cccc(Cl)c3)c(S(N)(=O)=O)c2)c1Cl [Example 120, 2-(2-Chloro-6-fluoro-3-methylphenyl)-N-[4-(3-chlorophenoxy)-3-sulfamoylphenyl]acetamide] | 65 | 83 | 194 | 78 |
| N#Cc1cccc(COc2ccc(NC(=O)Cc3ccccc3Cl)cc2S(N)(=O)=O)c1 [Example 142, 2-(2-Chlorophenyl)-N-{4-[(3-cyanobenzyl)oxy]-3-sulfamoylphenyl}acetamide] | 43 | 90 | 60 | 70 |
| NS(=O)(=O)c1cc(NC(=O)Cc2ccc(Cl)cc2Cl)ccc1Oc1cccc(Cl)c1 [Example 110, N-[4-(3-Chlorophenoxy)-3-sulfamoylphenyl]-2-(2,4-dichlorophenyl)acetamide] | 254 | 79 | 159 | 37 |
| COc1cccc(Oc2ccc(NC(=O)Cc3ccccc3Cl)cc2S(N)(=O)=O)c1 [Example 022, 2-(2-Chlorophenyl)-N-[4-(3-methoxyphenoxy)-3-sulfamoylphenyl]acetamide] | – | 87 | – | 54 |
| NS(=O)(=O)c1cc(NC(=O)Cc2ccc(C(F)F)cc2)ccc1Oc1ccc(Cl)cc1 [Example 234, N-[4-(4-Chlorophenoxy)-3-sulfamoylphenyl]-2-[4-(difluoromethyl)phenyl]acetamide] | 562 | 73 | 695 | 43 |
| NS(=O)(=O)c1cc(NC(=O)Cc2ccccc2Cl)ccc1OCc1cccnc1 [Example 149, 2-(2-Chlorophenyl)-N-[4-(pyridin-3-ylmethoxy)-3-sulfamoylphenyl]acetamide] | 45 | 81 | 118 | 77 |
| NS(=O)(=O)c1cc(NC(=O)Cc2ccccc2Cl)ccc1Oc1ccc(N2CCCCC2=O)cc1 [Example 175, 2-(2-Chlorophenyl)-N-{4-[4-(2-oxopiperidin-1-yl)phenoxy]-3-sulfamoylphenyl}acetamide] | 1300 | 52 | 15000 | 67 |
| CC1(COc2ccc(NC(=O)Cc3ccccc3Cl)cc2S(N)(=O)=O)CCOCC1 [Example 053, 2-(2-Chlorophenyl)-N-{4-[(4-methyltetrahydro-2H-pyran-4-yl)methoxy]-3-sulfamoylphenyl}acetamide] | 197 | 90 | 859 | 84 |
| COc1ccc(CC(=O)Nc2ccc(Oc3ccc(Cl)cc3)c(S(N)(=O)=O)c2)c(Cl)c1 [Example 235, 2-(2-Chloro-4-methoxyphenyl)-N-[4-(4-chlorophenoxy)-3-sulfamoylphenyl]acetamide] | 473 | 79 | 787 | 69 |
| NS(=O)(=O)c1cc(NC(=O)Cc2ccccc2Cl)ccc1Oc1ccc(Cl)cc1 [Example 066, N-[4-(4-Chlorophenoxy)-3-sulfamoylphenyl]-2-(2-chlorophenyl)acetamide] | > 25000 | 51 | 129 | 46 |
| NS(=O)(=O)c1cc(NC(=O)Cc2ccccc2Cl)ccc1Oc1cccc(OC(F)F)c1 [Example 024, 2-(2-Chlorophenyl)-N-{4-[3-(difluoromethoxy)phenoxy]-3-sulfamoylphenyl}acetamide] | 114 | 82 | 32 | 57 |
| NS(=O)(=O)c1cc(NC(=O)Cc2ccccc2Cl)ccc1Oc1cccc(-n2cnnc2)c1 [Example 020, 2-(2-Chlorophenyl)-N-{3-sulfamoyl-4-[3-(4H-1,2,4-triazol-4-yl)phenoxy]phenyl}acetamide] | – | 90 | – | 96 |
| NS(=O)(=O)c1cc(NC(=O)Cc2ccc(C(F)(F)F)cc2Cl)ccc1Oc1cccc(Cl)c1 [Example 135, N-[4-(3-Chlorophenoxy)-3-sulfamoylphenyl]-2-[2-chloro-4-(trifluoromethyl)phenyl]acetamide] | 631 | 75 | 870 | 45 |
| NS(=O)(=O)c1cc(NC(=O)Cc2ccccc2Cl)ccc1Oc1cccc(N2CCOCC2=O)c1 [Example 173, 2-(2-Chlorophenyl)-N-{4-[3-(3-oxomorpholin-4-yl)phenoxy]-3-sulfamoylphenyl}acetamide] | – | 100 | – | 92 |
| CS(=O)(=O)c1cccc(Oc2ccc(NC(=O)Cc3ccccc3Cl)cc2S(N)(=O)=O)c1 [Example 016, 2-(2-Chlorophenyl)-N-{4-[3-(methylsulfonyl)phenoxy]-3-sulfamoylphenyl}acetamide] | 96 | 81 | 112 | 72 |
| NS(=O)(=O)c1cc(NC(=O)Cc2ccccc2Cl)ccc1Oc1cccc(Br)c1 [Example 059, N-[4-(3-Bromophenoxy)-3-sulfamoylphenyl]-2-(2-chlorophenyl)acetamide] | 45 | 85 | 75 | 70 |
| COc1ccccc1Oc1ccc(NC(=O)Cc2ccccc2Cl)cc1S(N)(=O)=O [Example 032, 2-(2-Chlorophenyl)-N-[4-(2-methoxyphenoxy)-3-sulfamoylphenyl]acetamide] | 14 | 100 | 57 | 82 |
| NS(=O)(=O)c1cc(NC(=O)Cc2ccccc2Cl)ccc1Oc1ccc(N2CCOC2=O)cc1 [Example 063, 2-(2-chlorophenyl)-N-{4-[4-(2-oxo-1,3-oxazolidin-3-yl)phenoxy]-3-sulfamoylphenyl}acetamide] | 90 | 82 | 221 | 70 |
| NS(=O)(=O)c1cc(NC(=O)Cc2ccccc2Cl)ccc1OCc1ccncc1 [Example 151, 2-(2-Chlorophenyl)-N-[4-(pyridin-4-ylmethoxy)-3-sulfamoylphenyl]acetamide] | 143 | 88 | 69 | 97 |
| Cc1cccc(Cl)c1CC(=O)Nc1ccc(Oc2cccc(Cl)c2)c(S(N)(=O)=O)c1 [Example 096, 2-(2-Chloro-6-methylphenyl)-N-[4-(3-chlorophenoxy)-3-sulfamoylphenyl]acetamide] | 78 | 72 | 27 | 59 |
| NS(=O)(=O)c1cc(NC(=O)Cc2ccccc2Cl)ccc1OCc1ccc(F)cc1 [Example 143, 2-(2-Chlorophenyl)-N-{4-[(4-fluorobenzyl)oxy]-3-sulfamoylphenyl}acetamide] | 9 | 72 | 39 | 71 |
